# In a melting point compilation (Tetko et al.):
row,Compound,melting point [°C]
1,COc1ccccc1-c1nc(C(=O)O)cs1,184 to 186
2,CC(C)CC1NC(C(=O)O)CS1 (stereo not given),159 to 161
3,CC(C)(C)NS(=O)(=O)c1ccc(N)nc1,146 to 148
4,NNc1ccc(S(=O)(=O)NC2CC2)cn1,195 to 197
5,Cc1ccccc1C(=O)NC1CCN(C(=O)CCl)CC1,126 to 128
6,O=C(O)c1ccc(NC(=O)c2ccc(Br)o2)cc1,276 to 278
7,N#Cc1cccc(CCl)c1,67 to 70
8,CC(C)(C)OC(=O)N1CCC(CCC(=O)O)CC1,99 to 101
9,Cc1cc(S(N)(=O)=O)cc(NC(=O)CCl)c1C,210 to 212
10,NC(=NO)c1cnn2cccnc12,177 to 179
11,Clc1ccc2c(Cl)ncnc2c1,136 to 138
12,Cc1cc(C(=O)CCl)c(C)n1Cc1cccs1,83 to 85
13,COc1cc(C=O)ccc1OCC(=O)O,184 to 186
14,CC(=O)NCc1ccc(S(=O)(=O)NCC(=O)O)s1,192 to 194
15,Cc1cc(C(=O)CCl)c(C)n1-c1c(C)n(C)n(-c2ccccc2)c1=O,160 to 162
16,CSCCC(NS(=O)(=O)c1ccccc1)C(=O)O (stereo not given),103 to 105
17,NCC(O)c1ccco1 (stereo not given),80 to 82
18,CCCCOc1cc(C=O)ccc1OC,39 to 41
19,O=C(O)c1cc(Cl)c(Br)[nH]1,168 to 170
20,Cc1cc(C)nc(C#N)c1,43 to 45
21,Cc1n[nH]c2ncc(C=O)cc12,202 to 204
22,COC(=O)C(=O)CC(=O)c1ccc(C)cc1C,63 to 65
23,CS(=O)(=O)CC1(CBr)CC1,50 to 52
24,CC(=Cc1ccc(OCc2ccccc2)c(OCc2ccccc2)c1)C(=O)O,138 to 140
25,OCCNc1ccc(-c2ccccc2)nn1,162 to 164

# Now from value to compound:
row,melting point [°C],Compound
1,124 to 126,COC(=O)CNS(=O)(=O)c1ccc(Cl)nc1
2,87 to 89,O=C(O)CCCc1ccccc1Br
3,182 to 184,NC(=O)c1ccc(OCCCl)cc1
4,90 to 92,CC(Cl)C(=O)NCc1ccc(F)cc1 (stereo not given)
5,113 to 115,Cc1cccc(C(=O)N2CCSCC2)c1N
6,75 to 77,CC1CNc2cc(Cl)ccc2O1 (stereo not given)
7,194 to 196,COc1ccc(NC2=C(Cl)C(=O)N(c3ccc(C)cc3)C2=O)cc1
8,33 to 35,COc1ccc([N+](=O)[O-])cc1CN=[N+]=[N-]
9,232 to 234,O=C(O)c1ccc(S(=O)(=O)NCc2cccs2)cc1
10,165 to 167,Nc1ccc2cccc(Cl)c2n1
11,75 to 77,CC(C)(C)OC(=O)NC1(CO)CC1
12,179 to 181,O=C(CCl)Nc1cc(-n2cnnn2)ccc1Cl
13,110 to 112,O=C(O)Cn1nc(-c2ccc(F)cc2)oc1=O
14,88 to 90,CN1C(=O)CNc2ccccc21
15,151 to 153,O=C(O)CCC(=O)Nc1sc2c(c1C(=O)NCC1CCCO1)CCCC2 (stereo not given)
16,99 to 101,Cc1ccc(C)n1CC(=O)O
17,187 to 189,O=c1[nH]c(-c2ccccc2F)cs1
18,143 to 145,CCOc1ccc(C(=O)N2CCCCC2)cc1N
19,187 to 189,O=C1NC(=O)N(C2CCCCC2)C1=O
20,84 to 86,CCNS(=O)(=O)c1ccccc1OC
21,170 to 172,O=C(O)c1cc2c(cc1O)CCCC2
22,80 to 82,CC(C)C(O)c1nccn1C (stereo not given)
23,< 17,CC(O)c1cc2ccccc2o1 (stereo not given)
24,179 to 181,CS(=O)(=O)c1ccsc1C(=O)O
25,36 to 38,O=S(=O)(Cl)c1c(Cl)cccc1C(F)(F)F
